In PubChem BioAssay (NCI):
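Protocol summary: plate cells (96-well), add compound at 5 concentrations, incubate 48 h, interpolate endpoints linearly. TGI marks complete inhibition of growth.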

Assays:
Assay in all cases: NCI tumour cell line growth inhibition, 48 h
SK-OV-3 ovarian = tested on: SK-OV-3 ovarian
M14 melanoma = tested on: M14 melanoma
OVCAR-4 ovarian = tested on: OVCAR-4 ovarian
SN12C renal = tested on: SN12C renal
SNB-19 CNS = tested on: SNB-19 CNS
RPMI-8226 leukemia = tested on: RPMI-8226 leukemia
UACC-257 melanoma = tested on: UACC-257 melanoma
PC-3 prostate = tested on: PC-3 prostate
OVCAR-8 ovarian = tested on: OVCAR-8 ovarian
SK-MEL-2 melanoma = tested on: SK-MEL-2 melanoma
COLO 205 colon = tested on: COLO 205 colon
MDA-N = tested on: MDA-N
UO-31 renal = tested on: UO-31 renal
NCI-H23 lung = tested on: NCI-H23 lung
DU-145 prostate = tested on: DU-145 prostate
NCI/ADR-RES ovarian = tested on: NCI/ADR-RES ovarian
EKVX NSCLC = tested on: EKVX NSCLC
MDA-MB-435 = tested on: MDA-MB-435
A498 renal = tested on: A498 renal
NCI-H226 lung = tested on: NCI-H226 lung
HCT-116 colon = tested on: HCT-116 colon
786-0 renal = tested on: 786-0 renal
UACC-62 melanoma = tested on: UACC-62 melanoma
TK-10 renal = tested on: TK-10 renal
HCT-15 colon = tested on: HCT-15 colon
HOP-92 NSCLC = tested on: HOP-92 NSCLC
HCC-2998 colon = tested on: HCC-2998 colon
KM12 colon = tested on: KM12 colon
U251 CNS = tested on: U251 CNS
HT29 colon = tested on: HT29 colon
SF-539 CNS = tested on: SF-539 CNS
LOX IMVI melanoma = tested on: LOX IMVI melanoma
MALME-3M melanoma = tested on: MALME-3M melanoma
HOP-62 NSCLC = tested on: HOP-62 NSCLC
SK-MEL-28 melanoma = tested on: SK-MEL-28 melanoma
SW-620 colon = tested on: SW-620 colon
RXF 393 renal = tested on: RXF 393 renal
IGROV1 ovarian = tested on: IGROV1 ovarian
ACHN renal = tested on: ACHN renal
OVCAR-3 ovarian = tested on: OVCAR-3 ovarian
HS 578T breast = tested on: HS 578T breast
CAKI-1 renal = tested on: CAKI-1 renal
OVCAR-5 ovarian = tested on: OVCAR-5 ovarian
NCI-H460 lung = tested on: NCI-H460 lung
A549 NSCLC = tested on: A549 NSCLC
NCI-H522 lung = tested on: NCI-H522 lung
T-47D breast = tested on: T-47D breast
SF-295 CNS = tested on: SF-295 CNS
MCF7 breast = tested on: MCF7 breast
MOLT-4 leukemia = tested on: MOLT-4 leukemia
MDA-MB-231 breast = tested on: MDA-MB-231 breast
SK-MEL-5 melanoma = tested on: SK-MEL-5 melanoma
SF-268 CNS = tested on: SF-268 CNS
SNB-75 CNS = tested on: SNB-75 CNS

Measured: TGI

Fc1sc2c(c1F)C1CCC2C1 (centres undefined)
87.1 µM: RPMI-8226 leukemia
69.6 µM: HS 578T breast
86.8 µM: MOLT-4 leukemia
> 100 µM: all other assays above
